Reference: article PMC5518293, “An Iterative Module in the Azalomycin F Polyketide Synthase Contains a Switchable Enoylreductase Domain” (Angewandte Chemie (International Ed. in English), 2017)

Molecular target: T1, AzlA (Streptomyces sp. 211726, UniProt A0A1W6GWW1)
T1 construct: recombinant multienzyme, loading module (ACPL) plus extension module 1 (KS-AT-DH-ER-KR-ACP); mutant stated expressed in E. coli BAP1, holo-ACP1
Assay: one-pot reconstitution, LC-ESI-HRMS of acyl-ACP1 and of hydrolysed products
Format: biochemical
Settings: extender unit; with Azl4, Azl5, 4-guanidinobutyric acid and added stand-alone holo-ACP1

one-pot reconstitution, LC-ESI-HRMS of acyl-ACP1 and of hydrolysed products: recruits malonyl‐CoA as extender unit
SMILES: CC(C)(COP(=O)(O)OP(=O)(O)OC[C@H]1O[C@@H](n2cnc3c(N)ncnc32)[C@H](O)[C@@H]1OP(=O)(O)O)[C@@H](O)C(=O)NCCC(=O)NCCSC(=O)CC(=O)O [malonyl‐CoA]
